In the CheMixHub ionic liquid set:
± gives the uncertainty stated by the source.

Assay: xn = mol fraction of the nth substance listed
Details: for viscosity: 100 kPa; for electrical conductivity: 101 kPa

CCCCCCCCCCCCOS(=O)(=O)[O-].[Na+] + O
Details	electrical conductivity, 298.15 K [S/m]	viscosity, 298.15 K [mPa·s]	viscosity, 303.15 K [mPa·s]	viscosity, 308.15 K [mPa·s]	viscosity, 313.15 K [mPa·s]	viscosity, 318.15 K [mPa·s]
x1 = 1.802e-05	–	–	0.764 ± 0.026	0.69 ± 0.026	0.599 ± 0.027	0.567 ± 0.026
x1 = 3.604e-05	–	–	0.766 ± 0.026	0.691 ± 0.026	0.6 ± 0.026	0.568 ± 0.026
x1 = 5.406e-05	–	–	0.767 ± 0.026	0.691 ± 0.026	0.601 ± 0.026	0.57 ± 0.026
x1 = 6.168e-05	0.02352 ± 1e-05	–	–	–	–	–
x1 = 6.588e-05	0.02512 ± 1e-05	–	–	–	–	–
x1 = 7.207e-05	–	–	0.768 ± 0.026	0.692 ± 0.026	0.601 ± 0.026	0.57 ± 0.026
x1 = 7.696e-05	0.02928 ± 1e-05	–	–	–	–	–
x1 = 8.42e-05	0.03184 ± 2e-05	–	–	–	–	–
x1 = 9.009e-05	–	–	0.769 ± 0.026	0.694 ± 0.026	0.602 ± 0.026	0.571 ± 0.026
x1 = 9.222e-05	0.03505 ± 2e-05	–	–	–	–	–
x1 = 9.755e-05	0.03686 ± 2e-05	–	–	–	–	–
x1 = 0.0001029	0.03889 ± 2e-05	–	–	–	–	–
x1 = 0.0001081	–	–	0.77 ± 0.026	0.695 ± 0.026	0.603 ± 0.026	0.571 ± 0.026
x1 = 0.0001261	–	–	0.772 ± 0.026	0.696 ± 0.026	0.604 ± 0.026	0.572 ± 0.026
x1 = 0.0001441	–	–	0.773 ± 0.026	0.698 ± 0.026	0.605 ± 0.026	0.573 ± 0.026
x1 = 0.0001622	–	–	0.774 ± 0.026	0.7 ± 0.026	0.605 ± 0.026	0.574 ± 0.026
x1 = 0.0001802	–	–	0.775 ± 0.026	0.701 ± 0.026	0.606 ± 0.026	0.575 ± 0.026
x1 = 0.0001982	–	–	0.776 ± 0.026	0.702 ± 0.026	0.607 ± 0.026	0.576 ± 0.026
x1 = 0.0002162	–	–	0.776 ± 0.026	0.702 ± 0.026	0.608 ± 0.026	0.576 ± 0.026
x1 = 0.0002342	–	–	0.777 ± 0.026	0.704 ± 0.026	0.609 ± 0.026	0.577 ± 0.026
x1 = 0.0002522	–	–	0.778 ± 0.026	0.704 ± 0.026	0.609 ± 0.026	0.577 ± 0.026
x1 = 0.0002702	–	0.867 ± 0.027	0.779 ± 0.027	0.705 ± 0.026	0.61 ± 0.028	0.578 ± 0.026

298.15 K, frequency 0.001 MHz
Details	electrical conductivity [S/m]
x1 = 1.029e-05	0.00434 ± 0.00043
x1 = 2.57e-05	0.0104 ± 0.001
x1 = 3.699e-05	0.0155 ± 0.0016
x1 = 5.034e-05	0.0213 ± 0.0021
x1 = 6.37e-05	0.0264 ± 0.0026
x1 = 7.295e-05	0.0301 ± 0.003
x1 = 8.321e-05	0.0349 ± 0.0035
x1 = 9.348e-05	0.0392 ± 0.0039
x1 = 0.0001038	0.0422 ± 0.0042
x1 = 0.000113	0.0461 ± 0.0046
x1 = 0.0001212	0.051 ± 0.0051
x1 = 0.0001315	0.054 ± 0.0054
x1 = 0.0001418	0.0567 ± 0.0057
x1 = 0.00015	0.0607 ± 0.0061
x1 = 0.0001582	0.0631 ± 0.0063
x1 = 0.0001665	0.0649 ± 0.0065
x1 = 0.000183	0.0673 ± 0.0067
x1 = 0.0001944	0.0683 ± 0.0068
x1 = 0.0002036	0.0701 ± 0.007
x1 = 0.000214	0.0713 ± 0.0071
x1 = 0.0002222	0.0737 ± 0.0074
x1 = 0.0002315	0.075 ± 0.0075
x1 = 0.0002408	0.0771 ± 0.0077
x1 = 0.0002521	0.0792 ± 0.0079
x1 = 0.0002625	0.0801 ± 0.008
x1 = 0.0002738	0.0823 ± 0.0082
x1 = 0.0002862	0.0841 ± 0.0084
